Data set [1] concerns the target T1, rat CPT-1 (Rattus norvegicus, UniProt Q63704).
T1 construct: made in house; host or cells: Pichia pastoris GS115 (isolated intact mitochondria)
T1 sequence (Q63704 1-772): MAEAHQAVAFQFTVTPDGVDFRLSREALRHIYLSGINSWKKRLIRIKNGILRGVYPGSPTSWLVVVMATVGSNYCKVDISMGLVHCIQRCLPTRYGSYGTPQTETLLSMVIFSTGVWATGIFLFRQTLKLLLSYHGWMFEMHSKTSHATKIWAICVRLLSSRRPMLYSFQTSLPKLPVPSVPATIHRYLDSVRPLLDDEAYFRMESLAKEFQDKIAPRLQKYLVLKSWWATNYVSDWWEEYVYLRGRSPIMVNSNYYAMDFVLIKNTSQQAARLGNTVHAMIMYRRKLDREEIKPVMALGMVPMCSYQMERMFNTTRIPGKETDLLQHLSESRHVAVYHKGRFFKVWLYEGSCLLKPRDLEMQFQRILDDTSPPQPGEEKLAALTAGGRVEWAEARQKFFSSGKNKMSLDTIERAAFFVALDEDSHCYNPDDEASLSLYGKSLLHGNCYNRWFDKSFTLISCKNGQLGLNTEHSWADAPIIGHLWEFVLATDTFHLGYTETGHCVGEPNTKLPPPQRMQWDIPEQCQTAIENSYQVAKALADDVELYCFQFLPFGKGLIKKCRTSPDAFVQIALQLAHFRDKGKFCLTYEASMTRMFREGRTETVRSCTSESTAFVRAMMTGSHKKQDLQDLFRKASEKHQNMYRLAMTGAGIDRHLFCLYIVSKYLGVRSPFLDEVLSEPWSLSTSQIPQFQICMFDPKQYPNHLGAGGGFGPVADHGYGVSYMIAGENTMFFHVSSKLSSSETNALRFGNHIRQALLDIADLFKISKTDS
The experiment in a line: Carnitine palmitoyltransferase 1 (CPT-1) assay, yeast mitochondria. It is filed as biochemical. Also on record: % CPT-1 activity: concentration or dose not given beside the values. The text has this: The expression plasmid pRCPT-Iβ/pHW010 (provided by Gebre Woldegiorgis, Beaverton, Oreg. Published in Woldegiorgis G. et al. Biochem. Biophys. Res. Commun. 2004, 325, 660-4.) was linearized in the GAP gene promoter by digestion with AvrII and integrated into the GAPp locus of P. pastoris GS115 by electroporation. Histidine prototrophic transformants were selected on YND plates and grown on YND medium. Mitochondria were isolated by disrupting the yeast cells with glass beads as previously described.
CPT activity was assayed by the forward exchange method using L-[^3H] carnitine as previously described (Nicot, C. et al., Biochem. Biophys. Res. Comm. 2004, 325, 2745-7). In a total volume of 0.5 mL, the standard enzyme assay mixture contained 0.2 mM L-[^3H]carnitine (˜5000 dpm/nmol), 80 μM palmitoyl-CoA, 20 mM HEPES (pH 7.0), 1% fatty acid-free albumin, and 40-75 mM KCl, with or without malonyl-CoA as indicated. Reactions were initiated by addition of isolated intact yeast mitochondria. The reaction was linear up to 4 min, and all incubations were done at 30° C. for 3 min. Reactions were stopped by addition of 6% perchloric acid and were then centrifuged at 2000 rpm for 7 min. The resulting pellet was suspended in water, and the product [^3H]palmitoylcarnitine was extracted with butanol at low pH. After centrifugation at 2000 rpm for 2 min, an aliquot of the butanol phase was transferred to a vial for radioactive counting.

The conditions of data set [2]: within 24 h, mice models; cited from earlier work.
The subject of data set [3] is MDA-MB-231 breast cancer cells. The experiment in a line: MTT cytotoxicity assay, MDA-MB-231 breast cancer cells. It is filed as cell-based, human. Particulars: MDA-MB-231 cells, 48 h, read-out: IC50, growth inhibition, MDA-MB-231. The protocol:
(§1) MCF-7 and MDA-MB-231 breast cancer cells were obtained from the American Type Culture Collection (ATCC) and were routinely grown in Dulbecco's modified Eagle's medium (DMEM, Gibco) containing 10% fetal bovine serum (FBS, Bio-Whittaker), 1% L-glutamine, 1% sodium pyruvate, 50 U/mL penicillin and 50 μg/mL streptomycin. SK-Br3 breast cancer cells were obtained from Eucellbank (Universidad de Barcelona, Spain) and were passaged in McCoy's 5 A medium containing 10% FBS, 1% L-glutamine, 1% sodium pyruvate, 50 U/mL penicillin and 50 μg/mL streptomycin. Non-malignant fibroblasts N-1 were obtained from Eucellbank (Universidad de Barcelona, Spain) and were passaged in DMEM medium containing 10% FBS, 1% L-glutamine, 1% sodium pyruvate, 50 U/mL penicillin and 50 μg/mL streptomycin. The cells remained free of Mycoplasma and were propagated in adherent culture according to established protocols. Cells were maintained at 37° C. in a humidified atmosphere of 95% air and 5% CO2.
(§2) Drug sensitivity was determined using a standard colorimetric MTT (3-4,5-dimethylthiazol-2-yl-2,5-diphenyltetrazolium bromide) assay. Briefly, cells were plated out at a density of 7×10^3 cells/100 μL/well in 96-well microtitre plates and allowed an overnight period for attachment. Then the medium was removed and fresh medium along with various concentrations of the tested compound were added to the cultures for a period of 48 h. Following the treatment, the cells were fed with drug-free medium (100 μL/well) and 10 μL of MTT solution (5 mg/mL; Sigma, St. Louis, Mo.), and the incubation was prolonged for 3 h at 37° C. After carefully removing the supernatants, the MTT-formazan crystals formed by metabolically viable cells were dissolved in dimethyl sulphoxide (100 μL/well) and the absorbance was measured at 570 nm in a multi-well plate reader (Model Anthos Labtec 2010 1.7 reader).

The conditions of data set [4]: rats, oral dose of 56 mg of EGCG; cited from earlier work.
Data set [5] concerns cancer cells overexpressing FASN. The following applies: cited from earlier work.
In data set [6] the test system is MCF-7 breast cancer cells. Nature of the data set: MTT cytotoxicity assay, MCF-7 breast cancer cells. The class given is cell-based, human. Particulars: MCF-7 cells, 48 h, read-out: IC50, growth inhibition, MCF-7. The protocol:
as §1, §2

Data set [7] has as its system SK-Br3 breast cancer cells. The experiment in a line: MTT cytotoxicity assay, SK-Br3 breast cancer cells. The class given is cell-based, human. The following applies: MTT, 48 h, read-out: IC50, growth inhibition, SK-Br3. The protocol: as §1, §2
The target in data set [8] is T2, FASN (Homo sapiens, UniProt P49327).
T2 construct: endogenous in cells; host or cells: SK-Br3 breast cancer cells
T2 sequence (P49327 whole entry): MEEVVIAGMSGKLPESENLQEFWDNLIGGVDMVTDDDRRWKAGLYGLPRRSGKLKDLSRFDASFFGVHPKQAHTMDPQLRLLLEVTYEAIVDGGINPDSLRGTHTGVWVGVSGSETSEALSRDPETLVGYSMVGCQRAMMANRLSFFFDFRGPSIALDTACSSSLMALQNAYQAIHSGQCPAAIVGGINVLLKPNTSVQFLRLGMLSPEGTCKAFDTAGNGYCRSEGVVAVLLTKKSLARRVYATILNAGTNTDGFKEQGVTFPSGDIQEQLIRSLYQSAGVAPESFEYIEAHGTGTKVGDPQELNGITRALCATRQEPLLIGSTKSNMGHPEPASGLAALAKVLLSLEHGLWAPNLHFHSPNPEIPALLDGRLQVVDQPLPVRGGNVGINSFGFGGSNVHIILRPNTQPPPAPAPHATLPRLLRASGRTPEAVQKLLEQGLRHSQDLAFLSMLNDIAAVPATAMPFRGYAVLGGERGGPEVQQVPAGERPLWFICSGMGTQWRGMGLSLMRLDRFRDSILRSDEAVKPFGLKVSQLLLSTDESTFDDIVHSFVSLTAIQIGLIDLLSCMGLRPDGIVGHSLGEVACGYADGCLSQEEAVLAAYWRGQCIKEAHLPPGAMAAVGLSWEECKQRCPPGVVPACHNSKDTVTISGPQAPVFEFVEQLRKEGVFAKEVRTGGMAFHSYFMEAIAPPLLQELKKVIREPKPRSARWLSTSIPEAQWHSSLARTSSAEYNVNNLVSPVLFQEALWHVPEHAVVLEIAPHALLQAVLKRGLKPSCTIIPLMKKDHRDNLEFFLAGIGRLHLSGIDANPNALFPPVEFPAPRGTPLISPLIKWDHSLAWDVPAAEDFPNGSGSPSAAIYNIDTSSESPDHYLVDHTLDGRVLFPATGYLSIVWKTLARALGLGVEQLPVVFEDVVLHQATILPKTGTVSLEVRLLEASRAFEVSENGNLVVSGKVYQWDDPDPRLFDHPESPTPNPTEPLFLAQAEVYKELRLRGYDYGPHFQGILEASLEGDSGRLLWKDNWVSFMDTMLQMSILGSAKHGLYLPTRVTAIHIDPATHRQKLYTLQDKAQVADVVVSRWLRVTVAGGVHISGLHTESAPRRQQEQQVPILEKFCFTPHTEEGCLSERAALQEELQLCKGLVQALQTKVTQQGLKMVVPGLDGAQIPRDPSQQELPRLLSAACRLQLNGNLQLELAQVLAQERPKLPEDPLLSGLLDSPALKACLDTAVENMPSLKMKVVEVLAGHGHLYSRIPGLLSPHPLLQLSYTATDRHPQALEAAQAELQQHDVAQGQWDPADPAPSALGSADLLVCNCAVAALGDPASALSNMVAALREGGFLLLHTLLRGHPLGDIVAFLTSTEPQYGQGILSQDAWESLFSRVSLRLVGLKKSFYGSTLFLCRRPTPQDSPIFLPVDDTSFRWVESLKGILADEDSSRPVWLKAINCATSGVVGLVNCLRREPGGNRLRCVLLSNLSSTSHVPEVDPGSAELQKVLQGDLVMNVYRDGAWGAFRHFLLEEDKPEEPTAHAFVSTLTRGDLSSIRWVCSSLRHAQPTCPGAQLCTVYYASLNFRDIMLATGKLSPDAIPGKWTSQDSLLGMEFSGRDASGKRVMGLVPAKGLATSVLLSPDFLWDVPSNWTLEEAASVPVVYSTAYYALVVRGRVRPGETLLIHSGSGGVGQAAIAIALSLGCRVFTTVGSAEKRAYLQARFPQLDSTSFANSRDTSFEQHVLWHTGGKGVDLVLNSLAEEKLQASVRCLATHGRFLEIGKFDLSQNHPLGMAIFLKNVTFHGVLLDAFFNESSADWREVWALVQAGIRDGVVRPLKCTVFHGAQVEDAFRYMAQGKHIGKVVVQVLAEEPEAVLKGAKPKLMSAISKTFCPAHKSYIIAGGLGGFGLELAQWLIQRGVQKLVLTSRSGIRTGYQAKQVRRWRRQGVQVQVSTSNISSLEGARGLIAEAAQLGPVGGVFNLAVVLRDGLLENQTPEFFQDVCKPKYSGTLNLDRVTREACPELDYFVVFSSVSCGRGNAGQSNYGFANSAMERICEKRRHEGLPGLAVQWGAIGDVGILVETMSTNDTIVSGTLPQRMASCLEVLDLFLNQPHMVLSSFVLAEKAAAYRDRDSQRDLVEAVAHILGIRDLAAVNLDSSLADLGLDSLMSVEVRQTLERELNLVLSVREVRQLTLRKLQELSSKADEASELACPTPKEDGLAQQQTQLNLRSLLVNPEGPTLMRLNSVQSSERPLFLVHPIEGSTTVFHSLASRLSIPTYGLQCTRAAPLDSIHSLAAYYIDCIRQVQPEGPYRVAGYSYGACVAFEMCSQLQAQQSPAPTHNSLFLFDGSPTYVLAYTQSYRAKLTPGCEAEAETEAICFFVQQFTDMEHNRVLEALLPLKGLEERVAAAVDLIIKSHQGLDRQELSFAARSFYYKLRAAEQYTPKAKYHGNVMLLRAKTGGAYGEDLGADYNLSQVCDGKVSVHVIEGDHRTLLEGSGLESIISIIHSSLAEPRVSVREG
Nature of the data set: Fatty acid synthase activity assay in SK-Br3 cells (NADPH oxidation, particle-free supernatants). The class given is cell-based. The following applies: SK-Br3 cells treated 6, 12 and 24 hours. The protocol: FASN activity of compounds a, b, e, f, h, i, k, m and q was assayed in particle-free supernatants by recording spectrophotometrically at 37° C. (Lambda Bio 20, Perkin Elmer, EUA; using UV Kinlab 2.80.02 software) the decrease of A340nm due to the oxidation of NADPH, as we previously described. After 6, 12, 24 h of exposure to the tested compound, the cells were harvested by treatment with trypsin-EDTA solution, pelleted by centrifugation, washed twice and resuspended in cold PBS. The cells were sonicated during 30 min at 4° C. (PSelecta ultrasons) and centrifuged for 15 min at 4° C. to keep supernatants particle-free. A sample was taken to measure the protein content by a BioRad assay (Bio-Rad Laboratories). One-hundred and twenty micrograms of protein were pre-incubated during 15 min at 37° C. in 0.2 M of potassium phosphate buffer, pH 7.0, for temperature equilibration. The sample was then added to the reaction mixture: 200 mM potassium phosphate buffer, pH 7.0, 1 mM EDTA (Sigma), 1 mM dithiothreitol (Sigma), 30 μM acetyl-CoA (Sigma), 0.24 mM NADPH (Sigma), in 0.3 mL reaction volume were monitored at 340 nm for 3 min to measure the background NADPH oxidation. After the addition of 50 μM of malonyl-CoA (Sigma), the reaction was assayed for additional 10 min to determine FASN-dependent oxidation of NADPH. Rates were corrected for the background rate of NADPH oxidation in the presence of acetyl-CoA. FASN activity was expressed in nmol NADPH oxidized min^−1 mg protein^−1.

In data set [9] the test system is Non-malignant fibroblasts N-1. The experiment in a line: MTT cytotoxicity assay, non-malignant fibroblasts N-1. It is filed as cell-based. The protocol:
as §1, §2

Several values for one entry are separate records, joined by “and”; a condition that tells them apart may be missing. Equal entries are not always repeated. Entries after “also recorded” stand apart in the source; their conditions may differ.

Consider two molecules from patent publication US20100190856A1, “Novel Polyhydroxylated Compounds as Fatty Acid Synthase (FASN) Inhibitors” (UNIVERSIDAD COMPLUTENSE DE MADRID, priority 2007, published 2010).

As for `C=C1C(=O)O[C@H](CCCCCCCC)[C@H]1C(=O)O` [Compound C75, (2R,3S)-4-methylene-2-octyl-5-oxotetrahydrofuran-3-carboxylic acid, reference compound], in [1], the “stimulation of CPT-1 activity (in words)” value is recorded as “stimulates CPT-1 activity”. Further, in [2], the “loss of body mass” value is “up to 12%”.
With `O=C(O[C@@H]1Cc2c(O)cc(O)cc2O[C@@H]1c1cc(O)c(O)c(O)c1)c1cc(O)c(O)c(O)c1` [EGCG, (−)-epigallocatechin-3-gallate, reference compound], the “% CPT-1 activity” value in [1] (% of DMSO control, mitochondria of P. pastoris expressing rat CPT-1) is given as 81 ± 4%. Also, the half-inhibitory concentration (IC50) in data set [3] was 197 ± 15.3 µM; in [6], 205 ± 7.1 µM; in [7], 150 µM and 149 µM; in data set [9] (non-malignant fibroblasts, MTT, 48 h, read-out: IC50, growth inhibition, Fibroblasts) it was 125 µM. Also, the EGCG absorbed in [4] is 0.012%. The “inhibitory ability lower than that of C75 and cerulenin” value in data set [5] is recorded as 4 fold. Besides, the “inhibition of FASN activity (in words)” value in data set [8] is “inhibit FASN activity; also recorded: decreased in a time-dependent manner”. Also, the “effects in cell death / morphology changes in non-malignant cells” value in data set [9] (up to doses three-fold their cytotoxic IC50 value in tumoral cells) was “massive cell death”.
